Assays:
[1] = target: JAK1 (Homo sapiens (Human), UniProt P23458); test: Jak Biochemical HTRF Assay, JAK1; settings: HTRF biochemical assay, GST-tagged catalytic domain; top concentration tested […]; read-out: JAK1 IC50
Text: (§1) Jak Biochemical HTRF Assay Protocol
(§2) Subsequent reagent additions employed an Agilent Bravo.

[2] = target: JAK2 (Homo sapiens (Human), UniProt O60674); test: Jak Biochemical HTRF Assay, JAK2; settings: HTRF biochemical assay, GST-tagged catalytic domain; top concentration tested […]
Text: as §1, §2

Sequence of JAK1 (P23458 875-1153): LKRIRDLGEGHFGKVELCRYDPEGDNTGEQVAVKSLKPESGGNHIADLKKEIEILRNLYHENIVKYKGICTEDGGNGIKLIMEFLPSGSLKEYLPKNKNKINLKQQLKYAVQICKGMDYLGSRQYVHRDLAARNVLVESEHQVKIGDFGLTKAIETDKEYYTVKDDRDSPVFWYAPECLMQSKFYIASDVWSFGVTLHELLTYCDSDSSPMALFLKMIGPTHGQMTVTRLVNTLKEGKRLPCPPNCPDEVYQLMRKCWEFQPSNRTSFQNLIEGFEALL
Sequence of JAK2 (O60674 849-1124): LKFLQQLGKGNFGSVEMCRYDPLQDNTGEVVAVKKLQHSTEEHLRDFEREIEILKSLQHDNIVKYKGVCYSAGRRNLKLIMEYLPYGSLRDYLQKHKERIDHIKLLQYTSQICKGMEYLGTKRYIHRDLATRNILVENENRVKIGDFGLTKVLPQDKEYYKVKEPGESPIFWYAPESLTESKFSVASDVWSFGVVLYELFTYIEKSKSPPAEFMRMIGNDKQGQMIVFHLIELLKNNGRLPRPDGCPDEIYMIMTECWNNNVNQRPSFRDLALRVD

Row | Structure (SMILES) | IC50 [1] | IC50 [2]
1 | Cc1cc(Cl)ccc1NC(=O)N1CC(CC#N)(n2cc(C(N)=O)c(Nc3ccccc3)n2)C1 [Example 38-14, 1-{1-[(4-chloro-2-methylphenyl)carbamoyl]-3-(cyanomethyl)azetidin-3-yl}-3-(phenylamino)-1H-pyrazole-4-carboxamide] | 25 nM | 334 nM
2 | Cc1ccc(Cl)cc1NC(=O)N1CC(CC#N)(n2cc(C(N)=O)c(Nc3ccccc3)n2)C1 [Example 38-17, 1-{1-[(5-chloro-2-methylphenyl)carbamoyl]-3-(cyanomethyl)azetidin-3-yl}-3-(phenylamino)-1H-pyrazole-4-carboxamide] | 11 nM | 149 nM
3 | Cc1ccc(NC(=O)N2CC(CC#N)(n3cc(C(N)=O)c(Nc4ccccc4)n3)C2)c(C)c1 [Example 38-19, 1-{3-(cyanomethyl)-1-[(2,4-dimethylphenyl)carbamoyl]azetidin-3-yl}-3-(phenylamino)-1H-pyrazole-4-carboxamide] | 23 nM | 334 nM
4 | Cc1cc(C)cc(NC(=O)N2CC(CC#N)(n3cc(C(N)=O)c(Nc4ccccc4)n3)C2)c1 [Example 38-20, 1-{3-(cyanomethyl)-1-[(3,5-dimethylphenyl)carbamoyl]azetidin-3-yl}-3-(phenylamino)-1H-pyrazole-4-carboxamide] | 19 nM | 326 nM
5 | Cc1c(Cl)cccc1NC(=O)N1CC(CC#N)(n2cc(C(N)=O)c(Nc3ccccc3)n2)C1 [Example 38-22, 1-{1-[(3-chloro-2-methylphenyl)carbamoyl]-3-(cyanomethyl)azetidin-3-yl}-3-(phenylamino)-1H-pyrazole-4-carboxamide] | 19 nM | 249 nM
6 | CCc1cccc(C)c1NC(=O)N1CC(CC#N)(n2cc(C(N)=O)c(Nc3ccccc3)n2)C1 [Example 38-23, 1-{3-(cyanomethyl)-1-[(2-ethyl-6-methylphenyl)carbamoyl]azetidin-3-yl}-3-(phenylamino)-1H-pyrazole-4-carboxamide] | 94 nM | 1190 nM
7 | COc1ccc(C)cc1NC(=O)N1CC(CC#N)(n2cc(C(N)=O)c(Nc3ccccc3)n2)C1 [Example 38-25, 1-{3-(cyanomethyl)-1-[(2-methoxy-5-methylphenyl)carbamoyl]azetidin-3-yl}-3-(phenylamino)-1H-pyrazole-4-carboxamide] | 18 nM | 168 nM
8 | Cc1ccccc1NC(=O)N1CC(CC#N)(n2cc(C(N)=O)c(Nc3ccccc3)n2)C1 [Example 38-27, 1-{3-(cyanomethyl)-1-[(2-methylphenyl)carbamoyl]azetidin-3-yl}-3-(phenylamino)-1H-pyrazole-4-carboxamide] | 11 nM | 162 nM
9 | CC(C)(C)CC(C)(C)NC(=O)N1CC(CC#N)(n2cc(C(N)=O)c(Nc3ccccc3)n2)C1 [Example 38-29, 1-{3-(cyanomethyl)-1-[(1,1,3,3-tetramethylbutyl)carbamoyl]azetidin-3-yl}-3-(phenylamino)-1H-pyrazole-4-carboxamide] | 185 nM | 1480 nM
10 | CCOc1ccccc1NC(=O)N1CC(CC#N)(n2cc(C(N)=O)c(Nc3ccccc3)n2)C1 [Example 38-30, 1-{3-(cyanomethyl)-1-[(2-ethoxyphenyl)carbamoyl]azetidin-3-yl}-3-(phenylamino)-1H-pyrazole-4-carboxamide] | 62 nM | 507 nM
11 | Cc1cccc(C)c1NC(=O)N1CC(CC#N)(n2cc(C(N)=O)c(Nc3ccccc3)n2)C1 [Example 38-31, 1-{3-(cyanomethyl)-1-[(2,6-dimethylphenyl)carbamoyl]azetidin-3-yl}-3-(phenylamino)-1H-pyrazole-4-carboxamide] | 33 nM | 656 nM
12 | C[C@@H](NC(=O)N1CC(CC#N)(n2cc(C(N)=O)c(Nc3ccccc3)n2)C1)c1ccccc1 [Example 38-33, 1-[3-(cyanomethyl)-1-{[(1R)-1-phenylethyl]carbamoyl}azetidin-3-yl]-3-(phenylamino)-1H-pyrazole-4-carboxamide] | 26 nM | 265 nM
13 | COc1ccc(NC(=O)N2CC(CC#N)(n3cc(C(N)=O)c(Nc4ccccc4)n3)C2)c(C)c1 [Example 38-36, 1-{3-(cyanomethyl)-1-[(4-methoxy-2-methylphenyl)carbamoyl]azetidin-3-yl}-3-(phenylamino)-1H-pyrazole-4-carboxamide] | 15 nM | 233 nM
14 | Cc1ccc(NC(=O)N2CC(CC#N)(n3cc(C(N)=O)c(Nc4ccccc4)n3)C2)cc1F [Example 38-37, 1-{3-(cyanomethyl)-1-[(3-fluoro-4-methylphenyl)carbamoyl]azetidin-3-yl}-3-(phenylamino)-1H-pyrazole-4-carboxamide] | 8 nM | 114 nM
15 | CCc1ccccc1NC(=O)N1CC(CC#N)(n2cc(C(N)=O)c(Nc3ccccc3)n2)C1 [Example 38-39, 1-{3-(cyanomethyl)-1-[(2-ethylphenyl)carbamoyl]azetidin-3-yl}-3-(phenylamino)-1H-pyrazole-4-carboxamide] | 16 nM | 303 nM
16 | N#CCC1(n2cc(C(N)=O)c(Nc3ccccc3)n2)CN(C(=O)Nc2ccc(F)c(Cl)c2)C1 [Example 38-40, 1-{1-[(3-chloro-4-fluorophenyl)carbamoyl]-3-(cyanomethyl)azetidin-3-yl}-3-(phenylamino)-1H-pyrazole-4-carboxamide] | 18 nM | 279 nM
17 | Cc1ccc(NC(=O)N2CC(CC#N)(n3cc(C(N)=O)c(Nc4ccc(S(C)(=O)=O)cc4)n3)C2)cc1 [Example 38-41, 1-{3-(cyanomethyl)-1-[(4-methylphenyl)carbamoyl]azetidin-3-yl}-3-{[4-(methylsulfonyl)phenyl]amino}-1H-pyrazole-4-carboxamide] | 13 nM | 175 nM
18 | CS(=O)(=O)c1ccc(Nc2nn(C3(CC#N)CN(C(=O)Nc4cc(F)ccc4F)C3)cc2C(N)=O)cc1 [Example 38-42, 1-{3-(cyanomethyl)-1-[(2,5-difluorophenyl)carbamoyl]azetidin-3-yl}-3-{[4-(methylsulfonyl)phenyl]amino}-1H-pyrazole-4-carboxamide] | 19 nM | 237 nM
19 | CCCCNC(=O)N1CC(CC#N)(n2cc(C(N)=O)c(Nc3ccc(S(C)(=O)=O)cc3)n2)C1 [Example 38-43, 1-[1-(butylcarbamoyl)-3-(cyanomethyl)azetidin-3-yl]-3-{[4-(methylsulfonyl)phenyl]amino}-1H-pyrazole-4-carboxamide] | 20 nM | 322 nM

More lines, now with the values ahead:

Row | IC50 [1] | IC50 [2] | Structure (SMILES)
20 | 0.9 nM | 21 nM | N#CCC1(n2cc(C(N)=O)c(Nc3ccccc3)n2)CN(C(=O)Nc2ccc(C#N)cc2)C1 [Example 38-15, 1-{3-(cyanomethyl)-1-[(4-cyanophenyl)carbamoyl]azetidin-3-yl}-3-(phenylamino)-1H-pyrazole-4-carboxamide]
21 | 7 nM | 111 nM | Cc1ccc(C)c(NC(=O)N2CC(CC#N)(n3cc(C(N)=O)c(Nc4ccccc4)n3)C2)c1 [Example 38-16, 1-{3-(cyanomethyl)-1-[(2,5-dimethylphenyl)carbamoyl]azetidin-3-yl}-3-(phenylamino)-1H-pyrazole-4-carboxamide]
22 | 7 nM | 106 nM | CCCNC(=O)N1CC(CC#N)(n2cc(C(N)=O)c(Nc3ccccc3)n2)C1 [Example 38-18, 1-[3-(cyanomethyl)-1-(propylcarbamoyl)azetidin-3-yl]-3-(phenylamino)-1H-pyrazole-4-carboxamide]
23 | 7 nM | 173 nM | N#CCC1(n2cc(C(N)=O)c(Nc3ccccc3)n2)CN(C(=O)Nc2ccc(F)c(F)c2)C1 [Example 38-21, 1-{3-(cyanomethyl)-1-[(3,4-difluorophenyl)carbamoyl]azetidin-3-yl}-3-(phenylamino)-1H-pyrazole-4-carboxamide]
24 | 5 nM | 179 nM | Cc1cccc(Cl)c1NC(=O)N1CC(CC#N)(n2cc(C(N)=O)c(Nc3ccccc3)n2)C1 [Example 38-24, 1-{1-[(2-chloro-6-methylphenyl)carbamoyl]-3-(cyanomethyl)azetidin-3-yl}-3-(phenylamino)-1H-pyrazole-4-carboxamide]
25 | 2 nM | 69 nM | CCOc1ccc(NC(=O)N2CC(CC#N)(n3cc(C(N)=O)c(Nc4ccccc4)n3)C2)cc1 [Example 38-26, 1-{3-(cyanomethyl)-1-[(4-ethoxyphenyl)carbamoyl]azetidin-3-yl}-3-(phenylamino)-1H-pyrazole-4-carboxamide]
26 | 6 nM | 79 nM | N#CCC1(n2cc(C(N)=O)c(Nc3ccccc3)n2)CN(C(=O)Nc2ccc(F)cc2F)C1 [Example 38-28, 1-{3-(cyanomethyl)-1-[(2,4-difluorophenyl)carbamoyl]azetidin-3-yl}-3-(phenylamino)-1H-pyrazole-4-carboxamide]
27 | 4 nM | 86 nM | CC(=O)c1cccc(NC(=O)N2CC(CC#N)(n3cc(C(N)=O)c(Nc4ccccc4)n3)C2)c1 [Example 38-32, 1-{1-[(3-acetylphenyl)carbamoyl]-3-(cyanomethyl)azetidin-3-yl}-3-(phenylamino)-1H-pyrazole-4-carboxamide]
28 | 8 nM | 144 nM | CCc1cccc(NC(=O)N2CC(CC#N)(n3cc(C(N)=O)c(Nc4ccccc4)n3)C2)c1 [Example 38-35, 1-{3-(cyanomethyl)-1-[(3-ethylphenyl)carbamoyl]azetidin-3-yl}-3-(phenylamino)-1H-pyrazole-4-carboxamide]
29 | 0.1 nM | 2 nM | CC(C)NC(=O)N1CCC(CC#N)(n2cc(C(N)=O)c(Nc3ccc(S(=O)(=O)C(F)(F)F)cc3)n2)CC1 [Example 38-44, 4-(4-carbamoyl-3-(4-(trifluoromethylsulfonyl)phenylamino)-1H-pyrazol-1-yl)-4-(cyanomethyl)-N-isopropylpiperidine-1-carboxamide]
30 | 0.1 nM | 0.5 nM | N#CCC1(n2cc(C(N)=O)c(Nc3ccc(S(=O)(=O)C(F)(F)F)cc3)n2)CCN(C(=O)Nc2ccc(C#N)cc2)CC1 [Example 38-45, 4-(4-carbamoyl-3-(4-(trifluoromethylsulfonyl)phenylamino)-1H-pyrazol-1-yl)-4-(cyanomethyl)-N-(4-cyanophenyl)piperidine-1-carboxamide]

From patent US9328099B2, “Cyanomethylpyrazole carboxamides as janus kinase inhibitors” (Merck Sharp & Dohme Corp., priority 2011, dated 2016)
